Experiments:
[1] = tested on: Human immunodeficiency virus 1; assay: Antiviral activity against ENF-resistant HIV1 NL4-3 harboring gp41 N-terminal heptad repeat D36S/V38M double mutant infected in human TZM-bl cells assessed as inhibition of viral entry into cells after 48 hrs by single-cycle infection assay; format: functional, organism-based
[2] = tested on: Human immunodeficiency virus 1; assay: Ratio of IC50 for ENF-resistant HIV1 NL4-3 harboring gp41 N-terminal heptad repeat V38A mutant to IC50 for ENF-resistant HIV1 NL4-3 harboring gp41 N-terminal heptad repeat D36G mutant; format: functional
[3] = tested on: Human immunodeficiency virus 1; assay: Ratio of IC50 for ENF-resistant HIV1 NL4-3 harboring gp41 N-terminal heptad repeat D36S/V38M double mutant to IC50 for wild type HIV1 NL4-3; format: functional
[4] = tested on: Human immunodeficiency virus 1; assay: Ratio of IC50 for wild type HIV1 NL4-3 to IC50 for ENF-resistant HIV1 NL4-3 harboring gp41 N-terminal heptad repeat D36G mutant; format: functional
[5] = tested on: Human immunodeficiency virus 1; assay: Antiviral activity against ENF-resistant HIV1 NL4-3 harboring gp41 N-terminal heptad repeat D36G mutant infected in human TZM-bl cells assessed as inhibition of viral entry into cells after 48 hrs by single-cycle infection assay; format: functional, organism-based
[6] = tested on: Human immunodeficiency virus 1; assay: Antiviral activity against ENF-resistant HIV1 NL4-3 harboring gp41 N-terminal heptad repeat I37T/N43K double mutant infected in human TZM-bl cells assessed as inhibition of viral entry into cells after 48 hrs by single-cycle infection assay; format: functional, organism-based
[7] = tested on: Human immunodeficiency virus 1; assay: Ratio of IC50 for ENF-resistant HIV1 NL4-3 harboring gp41 N-terminal heptad repeat D36S/V38M double mutant to IC50 for ENF-resistant HIV1 NL4-3 harboring gp41 N-terminal heptad repeat D36G mutant; format: functional
[8] = tested on: Human immunodeficiency virus 1; assay: Ratio of IC50 for ENF-resistant HIV1 NL4-3 harboring gp41 N-terminal heptad repeat I37T/N43K double mutant to IC50 for ENF-resistant HIV1 NL4-3 harboring gp41 N-terminal heptad repeat D36G mutant; format: functional
[9] = tested on: Human immunodeficiency virus 1; assay: Ratio of IC50 for ENF-resistant HIV1 NL4-3 harboring gp41 N-terminal heptad repeat V38M mutant to IC50 for ENF-resistant HIV1 NL4-3 harboring gp41 N-terminal heptad repeat D36G mutant; format: functional
[10] = tested on: Human immunodeficiency virus 1; assay: Ratio of IC50 for ENF-resistant HIV1 NL4-3 harboring gp41 N-terminal heptad repeat N43K mutant to IC50 for ENF-resistant HIV1 NL4-3 harboring gp41 N-terminal heptad repeat D36G mutant; format: functional
[11] = tested on: Human immunodeficiency virus 1; assay: Antiviral activity against ENF-resistant HIV1 NL4-3 harboring gp41 N-terminal heptad repeat V38A mutant infected in human TZM-bl cells assessed as inhibition of viral entry into cells after 48 hrs by single-cycle infection assay; format: functional, organism-based
[12] = tested on: Human immunodeficiency virus 1; assay: Antiviral activity against ENF-resistant HIV1 NL4-3 harboring gp41 N-terminal heptad repeat I37T mutant infected in human TZM-bl cells assessed as inhibition of viral entry into cells after 48 hrs by single-cycle infection assay; format: functional, organism-based
[13] = tested on: Human immunodeficiency virus 1; assay: Ratio of IC50 for ENF-resistant HIV1 NL4-3 harboring gp41 N-terminal heptad repeat I37T mutant to IC50 for ENF-resistant HIV1 NL4-3 harboring gp41 N-terminal heptad repeat D36G mutant; format: functional
[14] = tested on: Human immunodeficiency virus 1; assay: Ratio of IC50 for ENF-resistant HIV1 NL4-3 harboring gp41 N-terminal heptad repeat Q40H mutant to IC50 for wild type HIV1 NL4-3; format: functional
[15] = tested on: Human immunodeficiency virus 1; assay: Antiviral activity against ENF-resistant HIV1 NL4-3 harboring gp41 N-terminal heptad repeat V38A/N42T double mutant infected in human TZM-bl cells assessed as inhibition of viral entry into cells after 48 hrs by single-cycle infection assay; format: functional, organism-based
[16] = tested on: Human immunodeficiency virus 1; assay: Antiviral activity against ENF-resistant HIV1 NL4-3 harboring gp41 N-terminal heptad repeat Q40H mutant infected in human TZM-bl cells assessed as inhibition of viral entry into cells after 48 hrs by single-cycle infection assay; format: functional, organism-based
[17] = tested on: Human immunodeficiency virus 1; assay: Ratio of IC50 for ENF-resistant HIV1 NL4-3 harboring gp41 N-terminal heptad repeat D36G mutant to IC50 for wild type HIV1 NL4-3; format: functional
[18] = tested on: Human immunodeficiency virus 1; assay: Antiviral activity against ENF-resistant HIV1 NL4-3 harboring gp41 N-terminal heptad repeat V38M mutant infected in human TZM-bl cells assessed as inhibition of viral entry into cells after 48 hrs by single-cycle infection assay; format: functional, organism-based
[19] = tested on: Human immunodeficiency virus 1; assay: Ratio of IC50 for ENF-resistant HIV1 NL4-3 harboring gp41 N-terminal heptad repeat V38A mutant to IC50 for wild type HIV1 NL4-3; format: functional
[20] = tested on: Human immunodeficiency virus 1; assay: Ratio of IC50 for ENF-resistant HIV1 NL4-3 harboring gp41 N-terminal heptad repeat I37T/N43K double mutant to IC50 for wild type HIV1 NL4-3; format: functional
[21] = tested on: Human immunodeficiency virus 1; assay: Ratio of IC50 for ENF-resistant HIV1 NL4-3 harboring gp41 N-terminal heptad repeat I37T mutant to IC50 for wild type HIV1 NL4-3; format: functional
[22] = tested on: Human immunodeficiency virus 1; assay: Ratio of IC50 for ENF-resistant HIV1 NL4-3 harboring gp41 N-terminal heptad repeat Q40H mutant to IC50 for ENF-resistant HIV1 NL4-3 harboring gp41 N-terminal heptad repeat D36G mutant; format: functional
[23] = tested on: Human immunodeficiency virus 1; assay: Ratio of IC50 for ENF-resistant HIV1 NL4-3 harboring gp41 N-terminal heptad repeat V38A/N42T double mutant to IC50 for wild type HIV1 NL4-3; format: functional
[24] = tested on: Human immunodeficiency virus 1; assay: Antiviral activity against wild type HIV1 NL4-3 infected in human TZM-bl cells assessed as inhibition of viral entry into cells after 48 hrs by single-cycle infection assay; format: functional, organism-based; conditions: Human immunodeficiency virus 1, NL4-3, TZM-bl
[25] = tested on: Human immunodeficiency virus 1; assay: Ratio of IC50 for ENF-resistant HIV1 NL4-3 harboring gp41 N-terminal heptad repeat N43K mutant to IC50 for wild type HIV1 NL4-3; format: functional
[26] = tested on: Human immunodeficiency virus 1; assay: Ratio of IC50 for ENF-resistant HIV1 NL4-3 harboring gp41 N-terminal heptad repeat V38M mutant to IC50 for wild type HIV1 NL4-3; format: functional
[27] = tested on: Human immunodeficiency virus 1; assay: Antiviral activity against ENF-resistant HIV1 NL4-3 harboring gp41 N-terminal heptad repeat N43K mutant infected in human TZM-bl cells assessed as inhibition of viral entry into cells after 48 hrs by single-cycle infection assay; format: functional, organism-based
[28] = tested on: Human immunodeficiency virus 1; assay: Ratio of IC50 for ENF-resistant HIV1 NL4-3 harboring gp41 N-terminal heptad repeat V38A/N42T double mutant to IC50 for ENF-resistant HIV1 NL4-3 harboring gp41 N-terminal heptad repeat D36G mutant; format: functional

enfuvirtide
IC50 [1]: 240 nM
Ratio IC50 [2]: 77.9
Ratio IC50 [3]: 2.7
Ratio IC50 [4]: 9.9
IC50 [5]: 9.1 nM
IC50 [6]: > 2250 nM
Ratio IC50 [7]: 26.4
Ratio IC50 [8]: 247.3
Ratio IC50 [9]: 29.4
Ratio IC50 [10]: 51.3
IC50 [11]: 709 nM
IC50 [12]: 618 nM
Ratio IC50 [13]: 68
Ratio IC50 [14]: 16.1
IC50 [15]: > 2250 nM
IC50 [16]: 1450 nM
Ratio IC50 [17]: 0.1
IC50 [18]: 268 nM
Ratio IC50 [19]: 7.9
Ratio IC50 [20]: >25
Ratio IC50 [21]: 6.9
Ratio IC50 [22]: 159.8
Ratio IC50 [23]: >25
IC50 [24]: 90.2 nM
Ratio IC50 [25]: 5.2
Ratio IC50 [26]: 3
IC50 [27]: 467 nM
Ratio IC50 [28]: 247.3
